The source of these data is patent US20220105127A1, “METHODS FOR PROVIDING THE BENEFITS OF METHIONINE RESTRICTION WITHOUT DIETARY RESTRICTION” (priority 2020, published 2022).

Holding throughout (type): in vivo, mouse
Test [1] deals with C57BL/6J mice. Briefly: Experiment 1: high-fat diet with selenium compounds, body mass, fat pad and liver mass. Conditions: for Inguinal Fat Mass, Females / Perigonadal Fat Mass, Females / Total Body Mass, Females: female mice; for Inguinal Fat Mass, Females / Perigonadal Fat Mass, Females / Total Body Mass, Females / Inguinal Fat Mass, Males / Perigonadal Fat Mass, Males / Total Body Mass, Males: untreated = 100%, sodium selenite 0.0073% of food, selenomethionine 0.0036% or 0.0073% (which not stated); for Total Body Mass, Females / Total Body Mass, Males: 16 weeks. The protocol: (§1) All animal studies conducted were approved by the Institutional Animal Care and Use Committee (IACUC) of the Orentreich Foundation for the Advancement of Science, Inc. (Permit Number: 0511 MB). C57BL/6J mice (stock number 000664) were purchased from the Jackson Laboratories (Bar Harbor, Me.) and housed in a conventional animal facility maintained at 20±2° C., 50±10% relative humidity, with a 12 hr/12 hr light/dark photoperiod. Food and water were provided ad libitum. Upon arrival, mice were acclimatized for up to one week and fed Purina Lab Chow 5001 (Ralston Purina, Co.; St. Louis, Mo.).
At the beginning of the experiment, the mice were divided into 5 groups with each group being fed one of five isocaloric (5.3 kcal/gm) high-fat diets ad libitum for several weeks. Each high-fat diet comprising a base of 12% kcal protein, 31% kcal carbohydrate, and 57% kcal fat. The first group's diet was the control-fed diet and included the base and methionine in an amount that represented about 0.86% of the weight of the food (sometimes referred to as “control group,” “control-fed group,” or “group 1”). The second group's diet was the methionine-restricted group where the base-diet was restricted to 0.12% methionine as a percentage of the total weight of the food (sometimes referred to as “methionine-restricted group” or “group 2”). The third group was fed the base diet containing 0.86% methionine, which was supplemented with sodium selenite in an amount representing 0.0073% of the total weight of the food (sometimes referred to as “sodium selenite-supplemented group” or “group 3”). The fourth group was fed the base diet containing 0.86% methionine, supplemented with 0.0036% selenomethionine, as a percentage of the total food weight (sometimes referred to as “group 4”). The fifth group was fed the base diet containing 0.86% methionine as a percentage of the total weight of the food, supplemented with 0.0073% selenomethionine as a percentage of the total weight of the food (sometimes referred to as “group 5”). Amounts of selenium-containing compounds used for this and subsequent experiments were determined from pilot studies aimed at identifying minimal doses that still achieve high efficacy. […] The amount of selenomethionine administered to the animals in the fourth and fifth groups was approximately 1/200 and 1/100 times respectively, of the levels of sulfur-containing amino acids (i.e., methionine and cysteine) present in the subjects' diets.
Body mass and food consumption were monitored once a week for sixteen weeks. Prior to blood collection, animals were fasted for 4 hours to establish a physiological baseline. Blood was then collected from the retro-orbital plexus and processed using EDTA-K2-coated blood collection tubes (Milian Dutscher Group; Geneva, Switzerland). The resulting plasma was frozen and stored at −80° C. until used for analysis. A portion of each blood sample was used for blood glucose determination using an Abbott Freestyle Lite glucometer and glucose strips (Abbott Diabetes Care, Inc.; Alameda, Calif.). At the end of each study, animals were fasted and bled, as described above. The mice were then sacrificed, their overall body condition was assessed, and certain physiological parameters were measured. The inguinal and perigonadal fat pads, as well as liver of each mouse, were harvested by surgical resection, weighed, flash frozen, and stored at −80° C.

Test [2] has as its system C57BL/6J mice. The experiment in a line: Experiment 3: low-fat diet with selenomethionine, inguinal and perigonadal fat pad weight. Conditions: male mice, selenomethionine 0.00015% of food, low-fat diet (10% of calories from fat), 8 week interval, p<0.01; even more effectively than methionine restriction. The procedure:
as §1
In this experiment, male mice were divided into three groups, with each group being fed a separate low-fat diet ad libitum for 8 weeks. The first group represented the control-fed group (CF group) and was fed a low-fat base diet that included 0.86% methionine as a percentage of total food. The second group was fed a methionine-restricted diet (MR group) where the amount of methionine was restricted to 0.12% of total consumed. The third group was fed the base diet supplemented with selenomethionine (SMS group) in an amount representing 0.00015% of total food consumed.
FIGS. 9A and 9B depict the reduced white adipose tissue accumulation of the SMS group as compared with the MR group and the CF group. […]

Test [3] has as its system plasma glucose. Briefly: Experiment 1: high-fat diet with selenium compounds, plasma glucose. Conditions: untreated = 100%, sodium selenite 0.0073% of food. The procedure: as §1
(§2) At the beginning of the experiment, the mice were divided into 5 groups with each group being fed one of five isocaloric (5.3 kcal/gm) high-fat diets ad libitum for several weeks. Each high-fat diet comprising a base of 12% kcal protein, 31% kcal carbohydrate, and 57% kcal fat. […] Amounts of selenium-containing compounds used for this and subsequent experiments were determined from pilot studies aimed at identifying minimal doses that still achieve high efficacy. […]
(§3) Body mass and food consumption were monitored once a week for sixteen weeks. […] The mice were then sacrificed, their overall body condition was assessed, and certain physiological parameters were measured. […]

In test [4] the test system is adiponectin. Briefly: Experiment 1: high-fat diet with selenium compounds, plasma adiponectin ELISA. Conditions: untreated = 100%, sodium selenite 0.0073% of food. The protocol: as §1, §2, §3
Test [5] deals with leptin. Briefly: Experiment 1: high-fat diet with selenium compounds, plasma leptin ELISA. The procedure: as §1
(§4) At the beginning of the experiment, the mice were divided into 5 groups with each group being fed one of five isocaloric (5.3 kcal/gm) high-fat diets ad libitum for several weeks. Each high-fat diet comprising a base of 12% kcal protein, 31% kcal carbohydrate, and 57% kcal fat. The first group's diet was the control-fed diet and included the base and methionine in an amount that represented about 0.86% of the weight of the food (sometimes referred to as “control group,” “control-fed group,” or “group 1”). […] Amounts of selenium-containing compounds used for this and subsequent experiments were determined from pilot studies aimed at identifying minimal doses that still achieve high efficacy. […]
as §3
(§5) Enzyme-linked immunosorbent assay (ELISA) kits were obtained commercially and used to measure plasma levels of IGF-1 (R&D Systems; Minneapolis, Minn.), adiponectin (R&D Systems), FGF-21 (Millipore Corp.; Billerica, Mass.), leptin (R&D Systems), growth hormone (Millipore Corp.), and insulin (ALPCO Diagnostics; Salem, N.H.). Tests were performed according to the manufacturers' recommendations and measured using a Molecular Devices SpectraMax M5 Microplate Reader (Molecular Devices LLC; San Jose, Calif.). […]
For orientation: An ELISA detects its analyte on a solid surface through an enzyme-linked reagent.

Test [6] relates to insulin. The experiment in a line: Experiment 1: high-fat diet with selenium compounds, plasma insulin ELISA. Conditions: untreated = 100%, sodium selenite 0.0073% of food. The procedure: as §1, §2, §3
Test [7] concerns IGF-1. The experiment in a line: Experiment 1: high-fat diet with selenium compounds, plasma IGF-1 ELISA. Conditions: sodium selenite 0.0073% of food. The protocol:
as §1, §4, §3, §5

Test [8] relates to FGF-21. Briefly: Experiment 1: high-fat diet with selenium compounds, plasma FGF-21 ELISA. Conditions: untreated = 100%, sodium selenite 0.0073% of food. The protocol: as §1, §2, §3

As for `C[Se]CC[C@H](N)C(=O)O` [Selenomethionine, selenomethionine], in test [1] (high-fat diet), the “Inguinal Fat Mass, Females” value is on record as 48%; the “Perigonadal Fat Mass, Females” value was found to be 55%; the “Total Body Mass, Females” value was 79%. Besides, in test [1] (male mice, high-fat diet), the “Inguinal Fat Mass, Males” value is recorded as 54%; the “Perigonadal Fat Mass, Males” value is 60%; the “Total Body Mass, Males” value is 84%. Also, the “overall body mass / diet-induced obesity” value in test [1] (male mice, selenomethionine 0.0036% and 0.0073% of food, high-fat diet, vs control-fed littermates) is reported as “dose-dependent protection against diet-induced obesity”. Also, the “inguinal and perigonadal adipose tissue” value in test [1] (male mice, selenomethionine-supplemented high-fat diet) was “less inguinal and perigonadal adipose tissue”. Also, the liver mass result in test [1] (selenomethionine-supplemented vs control animals, high-fat diet) is given as “not significantly different”. Besides, the “accumulation of inguinal and perigonadal adipose tissue (FIGS. 9A, 9B)” value in test [2] is on record as “robust protection against the accumulation of adipose tissue”.

Turning to `O=[Se](O)O` [Sodium Selenite, sodium selenite], in test [3] (female mice), the “Plasma Glucose, Females” value is on record as 69%. Moreover, in test [3] (male mice), the “Plasma Glucose, Males” value amounted to 71%. In test [1] (high-fat diet), the “Inguinal Fat Mass, Females” value is 19%; the “Perigonadal Fat Mass, Females” value came to 20%; the “Total Body Mass, Females” value came to 66%. Further, in test [1] (male mice, high-fat diet), the “Inguinal Fat Mass, Males” value turned out to be 17%; the “Perigonadal Fat Mass, Males” value was 20%; the “Total Body Mass, Males” value is recorded as 60%. For the same compound, the “Plasma Adiponectin, Females” value in test [4] (female mice) is recorded as 134%. Besides, in test [4] (male mice), the “Plasma Adiponectin, Males” value was 128%. The “Plasma Leptin, Females” value in test [5] (female mice, high-fat diet, untreated = 100%, sodium selenite 0.0073% of food) is reported as 17%. In addition, the “Plasma Leptin, Males” value in test [5] (male mice, high-fat diet, untreated = 100%, sodium selenite 0.0073% of food) was found to be 4%. Further, the “reduction in circulating leptin as compared with controls” value in test [5] (male mice, sodium selenite-supplemented high-fat diet for 16 weeks) came out at 96%. The “Plasma Insulin, Females” value in test [6] (female mice) is 25%. The “Plasma Insulin, Males” value in test [6] (male mice) stood at 19%. The “Plasma IGF-1, Females” value in test [7] (female mice, untreated = 100%) came out at 35%. Also, the “Plasma IGF-1, Males” value in test [7] (male mice, untreated = 100%) was determined as 63%. In addition, the “reduction of plasma IGF-1 levels as compared with control values” in test [7] (at the conclusion of experiment 1) turned out to be 37%. Further, the “Plasma FGF-21, Females” value in test [8] (female mice) worked out at 3971%. Further, the “Plasma FGF-21, Males” value in test [8] (male mice) was found to be 3045%.
